Patent US10100076B2, “Modified nucleosides for the treatment of viral infections and abnormal cellular proliferation” (priority 2000, dated 2018)

What was measured:
CEM cells = assay: cells; type: cell-based, human; conditions: for % inhibition at 100 μM, CEM Cells: four day incubation, MTT
Description: (§1) The cytotoxicity testing as performed herein is a standard technique. Briefly, cells are seeded in 96-well plates at various concentrations (dependent on cell type, duration of assay), typically at 5×10^3 cells per well, in the presence of increasing concentrations of the test compound (0, 1, 3, 10, 33, and 100 μM). After three (Vero cells), or four (CEM cells), or five (PBM cells) day-incubation, cell viability and mitochondrial activity are measured by adding the MTT-dye (Promega), followed by a 8 hours incubation. Afterwards the plates containing the dye are fixed by adding a stop-solution followed by another eight hour incubation. Finally, absorbance is read at 570 nm. Such methodologies are well described and available from the manufacturer (Promega).

PBM cells = assay: cells; type: cell-based, human; conditions: for % inhibition at 100 μM, PBM cells: five day incubation, MTT
Description: as §1

Vero cells = assay: cells; type: cell-based; conditions: for % inhibition at 100 μM, Vero Cells: three day incubation, MTT
Description: as §1

HCV replicon = HCV replicon system in Huh7 cells, replicon RNA by Q-RT-PCR (HCV ΔCt, ΔΔCt); type: cell-based, hepatitis C virus; conditions: for Ave. ΔΔCt: HCV RNA ΔCt minus rRNA ΔCt; for Ave. HCV RNA ΔCt: HCV replicon in Huh7 cells; for average ΔΔCt: HCV RNA ΔCt minus rDNA ΔCt
[1] = system: rRNA (host RNA polymerase I product); assay: rRNA ΔCt in Huh7 replicon cells (effect on host RNA polymerases); conditions: Table 24, average of n
Source text: In a typical setting, a compound might reduce both the host RNA polymerase activity and the replicon-encoded polymerase activity. Therefore, quantification of rRNA (or any other host RNA polymerase I product) or beta-actin mRNA (or any other host RNA polymerase II) and comparison with RNA levels of the no-drug control is a relative measurement of the effect of the test compound on host RNA polymerases.
With the availability of both the HCV ΔCt data and the rRNA ΔCt, a specificity parameter can be introduced. This parameter is obtained by subtracting both ΔCt values from each other.

rDNA (host DNA) = assay: rDNA ΔCt in Huh7 replicon cells (effect on cellular DNA polymerases); conditions: Table 25, average of N
Source text: In another typical setting, a compound might reduce the host RNA polymerase activity, but not the host DNA polymerase activity. Therefore, quantification of rDNA or beta-actin DNA (or any other host DNA fragment) and comparison with DNA levels of the no-drug control is a relative measurement of the inhibitory effect of the test compound on cellular DNA polymerases.
With the availability of both the HCV ΔCt data and the rDNA ΔCt, a specificity parameter can be introduced. This parameter is obtained by subtracting both ΔCt values from each other.

Row | Structure (SMILES) | IC50 (CEM cells) [µM] | % inhibition at 100 μM, CEM Cells (CEM cells) [%] | IC50 (PBM cells) [µM] | % inhibition at 100 μM, PBM cells (PBM cells) [%] | IC50 (Vero cells) [µM] | % inhibition at 100 μM, Vero Cells (Vero cells) [%] | Ave. ΔΔCt (HCV replicon; Table 24) | Ave. HCV RNA ΔCt (HCV replicon; Table 24, average of n) | average ΔΔCt (HCV replicon; Table 25) | Ave. HCV RNA ΔCt (HCV replicon; Table 25, average of N) | Ave. rRNA ΔCt [1] | Ave. rDNA ΔCt (rDNA (host DNA))
1 | Nc1nc(=O)n([C@H]2C[C@@H](CO)[C@H](O)[C@@H]2O)cc1Cl [β-L-GI] | > 100 | 18.0 | > 100 | −47.8 | > 100 | 31.9 |  |  |  |  |  | 
2 | O=c1[nH]c(=O)n([C@@H]2C[C@H](CO)[C@@H](O)[C@H]2O)cc1F [β-D-GF] | > 100 | 11.2 | > 100 | −46.2 | > 100 | 4.3 |  |  |  |  |  | 
3 | O=c1[nH]c(=O)n([C@H]2C[C@@H](CO)[C@H](O)[C@@H]2O)cc1F [β-L-GF] | > 100 | 35.1 | > 100 | −70.4 | > 100 | 33.8 |  |  |  |  |  | 
4 | Nc1ccn(C2CCC(CO)C2)c(=O)n1 [β-L-GE] | > 100 | 0.0 | > 100 | −59.7 | > 100 | 10.6 |  |  |  |  |  | 
5 | Nc1nc(=O)n([C@@H]2CC[C@H](CO)C2)cc1I [β-L-GG] | > 100 | 17.3 | > 100 | −34.6 | > 100 | 33.6 |  |  |  |  |  | 
6 | Nc1nc(=O)n([C@H]2C[C@@H](CO)[C@H](O)[C@@H]2O)cc1I [β-L-GH] | > 100 | 19.7 | > 100 | −52.1 | > 100 | 27.0 |  |  |  |  |  | 
7 | Nc1nc(=O)n([C@@H]2O[C@H](CO)[C@H](Br)[C@H]2O)cc1I [β-D-BE] |  |  |  |  |  |  | 1.64 | 4.44 | 2.98 | 4.99 | 2.80 | 2.06
8 | CC(=O)O[C@H]1[C@@H]2Oc3nc(=N)ccn3[C@@H]2O[C@@H]1CO [β-D-MD] |  |  |  |  |  |  | 1.62 | 3.57 | 1.46 | 3.50 | 1.95 | 1.58
9 | Nc1nc(=O)n([C@H]2C[C@@H](CO)[C@H](O)[C@@H]2O)cc1F [β-L-GA] | > 100 | 1.1 | > 100 | −113.2 | > 100 | 27.9 |  |  |  |  |  | 
10 | N=c1nc(N)ccn1[C@@H]1O[C@H](CO)[C@@H](O)[C@@H]1O [β-D-BL] |  |  |  |  |  |  | 0.35 | 2.28 | 0.65 | 2.28 | 1.93 | 1.62
11 | N=c1ccn2c(n1)O[C@H]1[C@H](O)[C@@H](CO)O[C@H]12 [β-D-ME] |  |  |  |  |  |  | 1.64 | 2.89 | 1.36 | 2.89 | 1.25 | 1.53
